Three substances from patent US20220211914A1, “HYALURONIC ACID HYDROGELS WITH PROLONGED ANTIMICROBIAL ACTIVITY” (INSTITUT NATIONAL DE LA SANTE ET DE LA RECHERCHE MEDICALE …, priority 2019, published 2022) can be followed below.

“Also recorded” adds a separate entry of the source.

Series [1] is described as follows: PAR mobility inside HA hydrogels by FRAP. Format: physicochemical. Particulars: discs loaded with 0.5 mg/mL FITC-conjugated PAR for 24 h. Here is the method: FIG. 8: PAR mobility inside HA hydrogels. HA discs were loaded with 0.5 mg/mL of three different FITC-conjugated PARs for 24 h and rinsed. Then, FRAP experiments were conducted. (A) Comparison of the fluorescence recovery of three PARs. (B) Determination of the diffusion coefficients D and percentage of mobile molecules p for three PARs.
Next, the inventors studied PARs mobility inside the hydrogels (FIG. 8) using FRAP (fluorescence recovery after photobleaching) technique. […] Quantitative parameters such as diffusion coefficient were also determined (FIG. 8B).

Series [2] can be described thus: Loading of PAR-FITC into HA hydrogel discs (CLSM images, fluorescence profiles). Particulars: for distribution in hydrogel discs (fluorescent profiles): discs loaded with 0.5 mg/mL PAR-FITC. The series is classed as physicochemical. The protocol: FIG. 6: Loading of PAR30-FITC into HA hydrogel discs at different concentrations for 3 h and 24 h. (A) CLSM images (B) Quantification of PAR concentration in the center of the discs.
FIG. 7: Loading of PARs-FITC into HA hydrogel discs. CSLM images of HA hydrogel discs loaded with 0.5 mg/mL of three PARs labelled with FITC (on the left) and fluorescence profiles of the resulting discs (on the right).
To load PAR into the hydrogels, the discs were immersed in PAR solution and incubated at room temperature. For 4 mm discs in 24-well plate, 0.5 mL of PAR solution was used. Then the discs were rinsed with Tris/NaCl buffer two times: one short and one long (at least 1 hour) rinsing.
To visualize PAR loading and diffusion inside the hydrogels, they again used fluorescently-labelled PARs (PAR10-FITC, PAR30-FITC, PAR200-FITC).

A short description of series [3]: PAR-loaded hydrogel stability in Tris/NaCl buffer. Format: physicochemical. Particulars: 48 h at room temperature or at 37° C.
Series [4] is described as follows: PAR-FITC release from HA hydrogel discs in NaCl 1 M (confocal microscopy, spectrofluorimetry). Particulars: for release according to the confocal microscopy images: 72 h at 37° C. in NaCl 1M, discs loaded with 0.5 mg/mL PAR-FITC; for released PAR (from percentage remaining, image processing): 72 h in NaCl 1 M, 100% = fluorescence intensity before release; for PAR concentration contained in the discs: disc volume approximately 30 μL, loaded in 0.5 mg·mL^−1. Here is the method:
FIGS. 20-24: Release of PARs in NaCl and in culture media. HA discs were incubated with 0.5 mg·mL^−1 of three different FITC-conjugated PAR for 24 h. The discs were rinsed, then incubated for 72 h in NaCl 1 M, MH or DMEM.
More specifically, total amounts of PAR contained in the hydrogels were estimated by incubation of hydrogels loaded with fluorescently labelled PAR in concentrated NaCl to promote PAR release. […] The percentage of PAR remaining in the hydrogel discs after 72 h of incubation was measured with image processing; 100% corresponds to fluorescence intensity before release. […] Then, amounts of PAR-FITC released were quantified by measuring fluorescence intensity of the supernatant by spectrofluorimetry and referring to a calibration curve.

Series [5] is described as follows: PAR-FITC release from HA hydrogels in MH and DMEM culture media. Particulars: for release rate in MH: followed during 72 hours at 37° C. in MH; for release in DMEM/FBS relative to MH: 24 h of incubation at 37° C.
Protocol: Using FITC-labeled PARs of 10 units, 30 units and 200, the inventors evaluated their release at 37° C. from HA hydrogels in two different media.
They performed discs imaging after 24 h of incubation at 37° C. in MH (Mueller Hinton broth, bacterial culture medium) and in DMEM (Dulbecco's modified Eagle's medium+10% FBS+antibiotics, cell culture medium).
More specifically, PAR release from the hydrogels was followed during 72 hours in microbiological growth medium (MH) or cell culture medium (DMEM). PAR-FITC loaded hydrogels were placed into these media and incubated at 37° C., and PAR release was observed by confocal microscopy (FIG. 22).
Series [6] has as its system S. aureus. The series can be described thus: Antibacterial activity of PAR-loaded HA films, S. aureus culture, OD at 620 nm after 24 h. The series is classed as cell-based. The settings on record: loaded into HA hydrogels at 1 mg/mL; preliminary experiments. Here is the method:
FIG. 3: Bacterial growth on PAR pre-loaded and post-loaded HA films. Bacterial growth was evaluated after 24 h by optical density (OD) measurement at 620 nm. PARO corresponds to HA film without PAR. HA 2.5%+BDDE 20% films were added with 1 mg/mL PAR after cross-linking (=post-loaded films).
They assessed post-loading of PAR (adding 1 mg/mL solution of PAR onto cross-linked HA films). […] We also followed PAR release after 24 h from post-loaded films.
After 24 h, OD at 620 nm was measured and bacterial viability on the surfaces was assessed using BacLight Redox Sensor CTC Vitality kit (Molecular Probes) as a fluorescent marker.

In series [7] the test system is Balb/3T3 cells. The series can be described thus: Direct in vitro cytotoxicity test (ISO 10993) with MTT test. Particulars: 24 h. Here is the method:
FIG. 14: Cell viability evaluation by MTT test. Balb/3T3 cells were seeded in 24-well plate and put in contact with HA hydrogel discs loaded or not with PARs for 24 h. HA discs correspond to BDDE-crosslinked HA hydrogel discs without PAR, and HA+PARs correspond to HA hydrogels loaded with different PAR concentrations (mg/mL). (A) Cell images after 24 h of direct in vitro cytotoxicity test. (B) Cell viability measured by MTT test. Dashed line corresponds to 70% viability (cytotoxicity limit).
Direct in vitro cytotoxicity test consists in putting material in contact with the cells for 24 h and performing MTT test to evaluate cell viability. According to ISO 10993, the tested material should cover approximately 1/10 of cell layer surface, which corresponds to ˜5 mm hydrogel discs per well of a 24-well plate.
After 24 h at 37° C., hydrogel discs were removed and MTT test was performed in order to measure cell metabolic activity, which often serves to estimate cell viability. […] The number of viable cells correlates to the colour intensity determined by photometric measurements after dissolving the formazan in alcohol (from ISO 10993).
So the discs, loaded or not with PAR, were sterilized and placed onto ˜80% confluent layer of Balb/3T3 cells. For MTT assay, the cells were incubated for 2 h in 0.2 mg/mL MTT-containing cell culture medium. The medium was then removed and formazan was dissolved in DMSO. Absorbance of resulting solutions was measured at 570 nm using spectrophotometer and images were taken around and under the discs to evaluate cell morphology.
In general terms: Tetrazolium assays rely on reduction of a dye to a coloured formazan, in cell work by metabolically active cells.

The test system of series [8] is bacteria. The series can be described thus: Repetitive culture of bacteria with PAR-loaded HA hydrogel discs (fresh bacteria every 24 h). The series is classed as cell-based. The settings on record: for duration of antibacterial effect in repetitive culture, additional test: additional test (FIG. 15); for lowest loading concentration showing antibacterial effect: loaded HA hydrogels. The protocol: Repetitive culture: after 24 h of bacterial culture, the samples were rinsed and seeded with fresh bacteria.
After 24 h of bacterial culture, the samples were rinsed and seeded with fresh bacteria.
Every 24 h of bacterial culture, the samples were seeded with fresh bacteria.

The mark [9] stands for this setting: hydrogels loaded with 0.05 mg/mL.
Where [10] appears, read: 0.1 mg/mL-loaded hydrogels, fresh bacteria added every day.
The mark [11] stands for this setting: HA hydrogel discs loaded at 1 mg/mL.

In the case of poly-L-arginine [PAR10], the “mobility inside the hydrogels (qualitative, FRAP)” value in series [1] was “most mobile”. Further, the “distribution in hydrogel discs (fluorescent profiles)” value in series [2] is on record as “more homogeneous distribution”. Moreover, the “PAR-FITC release in Tris/NaCl buffer” value in series [3] is recorded as “no PAR-FITC release”. Further, the “release according to the confocal microscopy images” value (“release according” for short) in series [4] is reported as “almost complete”. For the same substance, in series [4], the “released PAR (from percentage remaining, image processing)” value is given as “about 97%”. Besides, in series [4], the “PAR concentration contained in the discs” value was “about 7.3 mg·mL^−1”. Moreover, the “release rate in MH” value in series [5] is reported as “faster”. Also, the antibacterial activity result in series [6] is listed as “antibacterial activity”. Moreover, the “cell viability by MTT test” value is listed as “good” in series [7] (0.1 mg/mL-loaded hydrogels) and “good viability” in series [7] (setting [9]). In series [8] (0.1 mg/mL-loaded hydrogels), the “duration of antibacterial effect in repetitive culture, additional test” value amounted to 3 days. Further, the “duration of antibacterial effect in repetitive culture” value came to 2 days in series [8] (setting [10]) and 8 days in series [8] (setting [11]). The “lowest loading concentration showing antibacterial effect” value in series [8] was 0.05 mg/mL.
On to poly-L-arginine [PAR30], for which the “diffusion into the disc center, 24 h vs. 3 h loading” value in series [2] (PAR30-FITC loading for 3 h vs. 24 h) is recorded as “diffused more into the discs center”. In series [2], the “distribution in hydrogel discs (fluorescent profiles)” value is “more homogeneous distribution”. Also, in series [3], the “PAR-FITC release in Tris/NaCl buffer” value is “no PAR-FITC release”. In addition, in series [4], the “release according” value is around 80%; the “released PAR (from percentage remaining, image processing)” value is recorded as around 78%; the “PAR concentration contained in the discs” value was around 6.7 mg/mL. In addition, in series [5], the “release in DMEM/FBS relative to MH” value is “higher than in MH” and the “release rate in MH” value is on record as “released more gradually”. Also, in series [6], the antibacterial activity entry is given as “antibacterial activity”. Also, in series [7] (0.1 mg/mL-loaded hydrogels), the “cell viability by MTT test” value is on record as “good”. Further, the “cell viability by MTT test” value in series [7] (setting [9]) is listed as “good viability”. Further, the “duration of antibacterial effect in repetitive culture, additional test” value in series [8] (0.1 mg/mL-loaded hydrogels) was 5 days. The “duration of antibacterial effect in repetitive culture” value in series [8] (setting [10]) is 4 days. Further, the “duration of antibacterial effect in repetitive culture” value in series [8] (HA hydrogel discs loaded at 0.5 mg/mL) worked out at 8 days. The “duration of antibacterial effect in repetitive culture” value in series [8] (setting [11]) is reported as 8 days. Also, the “comparison of prolonged antibacterial effect among PAR lengths” value in series [8] (PAR10, PAR30, PAR200 loaded HA hydrogels, repetitive culture) is “most prolonged antibacterial effect; also recorded: most efficient”. The “lowest loading concentration showing antibacterial effect” value in series [8] came out at 0.05 mg/mL.
Regarding poly-L-arginine [PAR200], in series [1], the “mobility inside the hydrogels (qualitative, FRAP)” value is “least mobile”. In series [3], the “PAR-FITC release in Tris/NaCl buffer” value is recorded as “no PAR-FITC release”. Also, in series [4], the “release according” value is around 80%; the “released PAR (from percentage remaining, image processing)” value is reported as around 78%; the “PAR concentration contained in the discs” value is around 3.9 mg/mL. Moreover, in series [5], the “release in DMEM/FBS relative to MH” value is “higher than in MH” and the “release rate in MH” value is “released more gradually”. Also, in series [6], the antibacterial activity entry is recorded as “antibacterial activity”. Also, in series [8] (setting [11]), the “duration of antibacterial effect in repetitive culture” value came out at 7 days.
